From ChEMBL document CHEMBL1127793 (J Med Chem, 1994) come the findings set out here.

The target in assay [1] is T1, Prostaglandin G/H synthase 2 (Ovis aries) (UniProt P79208).
T1 sequence (whole entry): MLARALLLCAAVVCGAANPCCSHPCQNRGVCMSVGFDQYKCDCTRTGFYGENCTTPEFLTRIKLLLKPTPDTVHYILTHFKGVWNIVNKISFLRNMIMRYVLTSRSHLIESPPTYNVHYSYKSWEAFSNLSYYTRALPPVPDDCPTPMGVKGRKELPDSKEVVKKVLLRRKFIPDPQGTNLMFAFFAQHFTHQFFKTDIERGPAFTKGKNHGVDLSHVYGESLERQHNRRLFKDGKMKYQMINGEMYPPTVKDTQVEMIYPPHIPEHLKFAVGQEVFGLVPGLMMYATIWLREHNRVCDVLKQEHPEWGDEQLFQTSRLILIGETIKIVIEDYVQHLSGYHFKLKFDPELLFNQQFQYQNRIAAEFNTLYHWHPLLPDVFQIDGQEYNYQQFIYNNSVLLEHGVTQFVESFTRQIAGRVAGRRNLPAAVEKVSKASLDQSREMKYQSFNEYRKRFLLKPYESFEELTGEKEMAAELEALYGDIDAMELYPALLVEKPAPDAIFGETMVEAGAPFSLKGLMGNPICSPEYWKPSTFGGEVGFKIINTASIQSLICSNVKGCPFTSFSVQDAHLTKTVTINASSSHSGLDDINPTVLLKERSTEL
The assay can be described thus: Tested for inhibition of the Prostaglandin G/H synthase at 10 uM conc.; No inhibition.

Assay [2] has as its system Mus musculus. Description: Oral administration of compound in 0.5% methyl cellulose inhibits the LTB4-induced response. In kind it is functional.
For assay [3], the species on record is Homo sapiens. Description: Tested for inhibitory activity against LTB4 induced chemotaxis of human neutrophils. The class given is functional.
Assay [4] addresses Leukotriene B4 receptor 1 (Mus musculus, UniProt O88855). Description: Tested for antagonistic activity in mouse spleen membrane against LTB4 receptor. The class given is functional, cell membranes.
Assay [5] is filed under the species Cavia porcellus. Description: Tested for the inhibitory activity against neutrophil infiltration in response to LTB4 in guinea pig. The class given is functional.
For assay [6], the species on record is Homo sapiens. Description: Tested for inhibitory activity against LTB4 induced up-regulation of CD11b on human neutrophils. In kind it is functional.

The structures appear in SMILES notation. The source made the active and inactive calls. No cut-off for these calls is given here.

Usually ED50 stands for the dose at which the effect has come halfway, by size or by number of responders. High values mean weaker potency, low ones greater potency. What is called IC50 is the concentration that inhibits the measured activity by half. The low end stands for greater potency, the high end for weaker potency.

Chain of Leukotriene B4 receptor 1 (O88855 whole entry): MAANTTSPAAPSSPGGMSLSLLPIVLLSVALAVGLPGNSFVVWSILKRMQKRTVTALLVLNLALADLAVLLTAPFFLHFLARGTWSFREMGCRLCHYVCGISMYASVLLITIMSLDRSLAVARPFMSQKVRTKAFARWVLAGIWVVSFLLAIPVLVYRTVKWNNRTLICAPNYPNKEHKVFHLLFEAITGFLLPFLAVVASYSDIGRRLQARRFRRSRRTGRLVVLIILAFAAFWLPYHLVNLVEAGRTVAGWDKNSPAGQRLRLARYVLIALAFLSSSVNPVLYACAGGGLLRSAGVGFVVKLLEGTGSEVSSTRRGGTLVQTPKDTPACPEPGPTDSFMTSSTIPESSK

`O=C(O)C1(c2ccc3c(c2)OC[C@H](Cc2ccc(-c4ccccc4)cc2)[C@H]3O)CCCC1`: the inhibition entry in assay [1] is “inactive”. Besides, the median effective dose (ED50) turned out to be 4.2 mg/kg in assay [2] and 0.26 mg/kg in assay [5]. Further, the concentration for half-maximal inhibition (IC50) in assay [3] was 0.0052 µM; in assay [4] it was 0.0303 µM; in assay [6], 0.43 µM.
